Where “and” joins values, the source holds several entries; their conditions need not be identical. Identical values can stand only once.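 How tested: cells in 96-well plates exposed to compound for 48 hours at five concentrations. GI50 is the concentration that inhibits growth by half. TGI is the concentration that stops growth completely.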 Bounds are passed on as bounds.

The first test has as its system SF-268 CNS. Kind of test: NCI anticancer screen, dose series, 48 h.
Turning to `O=C1NC(=S)S/C1=C/c1ccc2c(c1)OCO2`, the GI50 is over 100 µM and the TGI was over 100 µM.
`O=C1C=CC(=O)C2C1C1(Cl)C(Cl)=C(Cl)C2(Cl)C1(Cl)Cl` (centres undefined): the GI50 was 3.16 µM and the TGI worked out at 14.8 µM.
As to `C=CC(=O)N1CCC(Oc2cc3c(Nc4ccc(Cl)c(Cl)c4F)ncnc3cc2OC)CC1`, the GI50 was 0.743 µM and 0.466 µM; the TGI is 19.4 µM and > 7.14 µM.
Consider `CC(=O)OC1OC([C@H]2c3cccc(O)c3C(=O)c3c(O)cc(C)cc32)C(O)C(O)C1O` (some centres undefined), for which the GI50 is 0.0788 µM and the TGI stood at 1.74 µM.
`CNC(=O)OCc1c(COC(=O)NC)c(-c2ccc(-c3ccccc3)cc2)n(C)c1C` gave a TGI of 5.32 µM.
As to `COc1cccc2c1C(=N)c1c(O)c3c(c(O)c1C2=O)C[C@@](O)(C(C)=O)C[C@@H]3O[C@H]1C[C@H](N)[C@H](O)[C@H](C)O1`, the GI50 is 0.339 µM and the TGI is 3.62 µM.
For `Cc1cn(-c2cc(NC(=O)c3cccc(C#Cc4cccc5[nH]nc(N)c45)c3)cc(C(F)(F)F)c2)cn1` the same measures were 4.81 µM and over 100 µM.
`CN(C)CCC(=O)N1C/C(=C\c2ccc(Cl)c(Cl)c2)C(=O)/C(=C/c2ccc(Cl)c(Cl)c2)C1` yielded a TGI of 0.653 µM.

The next test concerns SF-295 CNS. Description: NCI anticancer screen, dose series, 48 h.
Take `C=C(C)[C@@H]1CC[C@]2(COCCCN)CC[C@]3(C)[C@H](CC[C@@H]4[C@@](C)(CCCNCCCN)[C@H](C(=C)C)CC[C@]43C)[C@@H]12`: the GI50 is 1.94 µM and the TGI is 3.83 µM.
As to `O=C(O)CSCCc1ccccc1`, the TGI was over 100 µM.
In turn, `CCOC1C(Br)Cn2c(=O)c3cc4ccccc4cc3c(=O)n2C1C` (centres undefined) yielded a TGI of over 100 µM.
On the same count and under the same terms, for `COc1ccc(C(C#N)NC23CC4CC(CC(C4)C2)C3)cc1` (centres undefined) the value was over 100 µM; for `COc1ccc(NC(=O)CC/C(CC(=O)c2ccco2)=N/NC(=O)C(N)=O)cc1`, over 100 µM; for `CC(C)(C)c1cc([N+](=O)[O-])cc([N+](=O)[O-])c1O`, over 10 µM.
Turning to `Cc1cc(N(CC(C)Br)CC(C)Br)ccc1N=Nc1ccccc1C(=O)O` (centres undefined), the TGI amounted to 6.33 µM.
Consider `CCN(CC)CCCC(CCl)Nc1ccnc2cc(Cl)ccc12` (centres undefined), for which the GI50 was 13.1 µM and 12.6 µM; the TGI was 26.3 µM and 28.6 µM.
Regarding `COc1ccc2c(c1)C(=O)/C(=C/c1cccc(OCC(=O)c3ccccc3)c1)O2`, the GI50 is 20 µM and the TGI is 38.1 µM.
As to `O=C(O)c1ccc(CN2CCC(CN[C@@H]3C[C@H]3c3ccccc3)CC2)cc1`, the GI50 was over 100 µM and the TGI is over 100 µM.
For the molecule `O=C1NC(=S)S/C1=C/c1ccc2c(c1)OCO2`, the GI50 was 88.3 µM and the TGI was over 100 µM.
For `O=C1C=CC(=O)C2C1C1(Cl)C(Cl)=C(Cl)C2(Cl)C1(Cl)Cl` (centres undefined) the same measures were 1.91 µM and 6.62 µM.
Take `C=CC(=O)N1CCC(Oc2cc3c(Nc4ccc(Cl)c(Cl)c4F)ncnc3cc2OC)CC1`: the GI50 was 3.78 µM and 2.21 µM; the TGI is 17.3 µM and > 10 µM.
`CC(=O)OC1OC([C@H]2c3cccc(O)c3C(=O)c3c(O)cc(C)cc32)C(O)C(O)C1O` (some centres undefined): the GI50 is 0.0817 µM and the TGI turned out to be 0.239 µM.
`CNC(=O)OCc1c(COC(=O)NC)c(-c2ccc(-c3ccccc3)cc2)n(C)c1C`: the TGI was found to be 10.8 µM.
In the case of `COc1cccc2c1C(=N)c1c(O)c3c(c(O)c1C2=O)C[C@@](O)(C(C)=O)C[C@@H]3O[C@H]1C[C@H](N)[C@H](O)[C@H](C)O1`, the GI50 is 0.219 µM and the TGI came to 1.27 µM.
As to `Cc1cn(-c2cc(NC(=O)c3cccc(C#Cc4cccc5[nH]nc(N)c45)c3)cc(C(F)(F)F)c2)cn1`, the GI50 is 4.26 µM and the TGI was 28.4 µM.
`CN(C)CCC(=O)N1C/C(=C\c2ccc(Cl)c(Cl)c2)C(=O)/C(=C/c2ccc(Cl)c(Cl)c2)C1` registered a TGI of 0.824 µM.

Another test deals with SNB-19 CNS. Kind of test: NCI anticancer screen, dose series, 48 h.
As to `C=C(C)[C@@H]1CC[C@]2(COCCCN)CC[C@]3(C)[C@H](CC[C@@H]4[C@@](C)(CCCNCCCN)[C@H](C(=C)C)CC[C@]43C)[C@@H]12`, the GI50 was 1.84 µM and the TGI came to 3.56 µM.
`O=C(O)CSCCc1ccccc1` had a TGI of over 100 µM.
Same read-out and setting: the figure for `CCOC1C(Br)Cn2c(=O)c3cc4ccccc4cc3c(=O)n2C1C` (centres undefined) is over 100 µM.
On the same count and under the same terms, the figure for `COc1ccc(C(C#N)NC23CC4CC(CC(C4)C2)C3)cc1` (centres undefined) is over 100 µM; for `COc1ccc(NC(=O)CC/C(CC(=O)c2ccco2)=N/NC(=O)C(N)=O)cc1` it is over 100 µM; for `CC(C)(C)c1cc([N+](=O)[O-])cc([N+](=O)[O-])c1O` it is over 10 µM.
`Cc1cc(N(CC(C)Br)CC(C)Br)ccc1N=Nc1ccccc1C(=O)O` (centres undefined) displayed a TGI of 23.5 µM.
As to `CCN(CC)CCCC(CCl)Nc1ccnc2cc(Cl)ccc12` (centres undefined), the GI50 was 94.8 µM and > 89.7 µM; the TGI was over 100 µM.
For `COc1ccc2c(c1)C(=O)/C(=C/c1cccc(OCC(=O)c3ccccc3)c1)O2`, the GI50 was 15 µM and the TGI is 29 µM.
For `O=C(O)c1ccc(CN2CCC(CN[C@@H]3C[C@H]3c3ccccc3)CC2)cc1` the same measures were over 100 µM and over 100 µM.
Turning to `O=C1NC(=S)S/C1=C/c1ccc2c(c1)OCO2`, the GI50 is over 100 µM and the TGI is over 100 µM.
On to `O=C1C=CC(=O)C2C1C1(Cl)C(Cl)=C(Cl)C2(Cl)C1(Cl)Cl` (centres undefined), for which the GI50 was 11.2 µM and the TGI turned out to be 25.4 µM.
On to `C=CC(=O)N1CCC(Oc2cc3c(Nc4ccc(Cl)c(Cl)c4F)ncnc3cc2OC)CC1`, for which the GI50 is 8.97 µM and 6.52 µM; the TGI is 23.9 µM and > 10 µM.
Consider `CC(=O)OC1OC([C@H]2c3cccc(O)c3C(=O)c3c(O)cc(C)cc32)C(O)C(O)C1O` (some centres undefined), for which the GI50 is 0.0342 µM.
In turn, `CNC(=O)OCc1c(COC(=O)NC)c(-c2ccc(-c3ccccc3)cc2)n(C)c1C` showed a TGI of 16.9 µM.
Regarding `COc1cccc2c1C(=N)c1c(O)c3c(c(O)c1C2=O)C[C@@](O)(C(C)=O)C[C@@H]3O[C@H]1C[C@H](N)[C@H](O)[C@H](C)O1`, the GI50 is 0.232 µM and the TGI stood at 2.92 µM.
For the molecule `Cc1cn(-c2cc(NC(=O)c3cccc(C#Cc4cccc5[nH]nc(N)c45)c3)cc(C(F)(F)F)c2)cn1`, the GI50 is 8.14 µM and the TGI stood at 32.7 µM.
Turning to `CN(C)CCC(=O)N1C/C(=C\c2ccc(Cl)c(Cl)c2)C(=O)/C(=C/c2ccc(Cl)c(Cl)c2)C1`, the TGI is 2.13 µM.
